Columns and labels:
[1] = system: trigeminovascular Aδ-nociceptors, high threshold (HT) neurons, C-fiber and wide dynamic range (WDR) neurons; settings: rat, in vivo
[2] = system: C-fibers in the trigeminal ganglion; settings: rat, in vivo
[3] = design: species or system human; settings: in vivo; for Development of post-traumatic syndrome after treatment within the first day after blast injury: sc
[4] = design: species or system human; settings: in vivo
[5] = system: Aδ-fibers in the trigeminal ganglion; settings: rat, in vivo
[6] = system: neurons in the trigeminal ganglion; settings: rat, in vivo

## fremanezumab
[1]
  Activation of C-fiber and wide dynamic range (WDR) neurons: not
  Activation of trigeminovascular Aδ-nociceptors and high threshold (HT) neurons: blocked the activation

## onabotulinumtoxinA [BoNT-A]
[2]
  Baseline firing rate, C-fibers: 0.7 spikes/sec
  Effect on response to CSD in unmyelinated C-fibers: inhibited the response to CSD
[3]
  Outcome after treatment once symptoms had developed after blast injury: headaches resolve a month after their treatment with decreased photophobia, dizziness, tinnitus and insomnia
  Development of post-traumatic syndrome after treatment within the first day after blast injury: do not develop any features of a post-traumatic syndrome
[4]
  Outcome after treatment following 1 month of symptoms after head injury: headaches are lessened in severity and frequency, they experience improved sleep and improved cognition
  Outcome after treatment promptly after head injury, before onset of symptoms: continues to do well
[5]
  Baseline firing rate, Aδ-neurons: 0.7 spikes/sec
  Effect on response to CSD in Aδ-neurons: no significant difference
[6]
  Baseline firing rate prior to CSD: 0.7 Hz

B1: Galcanezumab (antibody, chains of the INN, looked up, V domains shown)
VH: QVQLVQSGAEVKKPGSSVKVSCKASGYTFGNYWMQWVRQAPGQGLEWMGAIYEGTGKTVYIQKFADRVTITADKSTSTAYMELSSLRSEDTAVYYCARLSDYVSGFGYWGQGTTVTVSS
VL: DIQMTQSPSSLSASVGDRVTITCRASKDISKYLNWYQQKPGKAPKLLIYYTSGYHSGVPSRFSGSGSGTDFTLTISSLQPEDFATYYCQQGDALPPTFGGGTKVEIK
[3]
  Development of post-traumatic syndrome after treatment within the first day after blast injury: do not develop any features of a post-traumatic syndrome

From patent US20210128724A1 (priority 2019, published 2021)
